Reference: patent publication US7049329B2, “Amines that inhibit a mammalian anandamide transporter, and methods of use thereof” (Sepracor Inc., priority 2002, dated 2006)
Values joined by “and” are separate entries in the source; they are usually repeats but may differ in a detail not shown here. Equal entries are not always repeated.

Columns and labels:
[1] = tested on: mammalian anandamide transporter; assay: Anandamide uptake functional assay; type: cell-based, human; details: reference compound; U-937 cells, [3H]-AEA uptake; read-out: IC50 of AM-404 in this assay
Experimental: The characterization of anandamide uptake was performed with human monocytes (U-937 cells), using a 96 wells format (volume of the reaction 500 μL). Uptake of radiolabelled anandamide by U-937 cells (10^5 cells in 400 μL/well) occured during a 15 minutes incubation time at 37° C. in the presence of test compounds added in solution in 50 μL and 50 μL of [^3H]-AEA (2 nM)/AEA (98 nM).
U-937 cells and [^3H]-AEA/AEA were prepared in a Krebs buffer pH 7.4 containing 25 mM NaHCO3, 11 mM glucose, 50 μM ascorbic acid and 1% BSA. This incubation buffer is oxygenated for 5 minutes before incubation. Basal control is incubated for 15 minutes at 4° C., in absence of any test or reference compound to prevent uptake.
Following incubation, uptake was stopped by filtration through a “unifilter 96-well GFB plate” (Packard) washed with Krebs buffer containing 25 mM NaHCO3 to eliminate the free [^3H]-AEA. The radioactivity associated with the U-937 cells corresponding to the uptake was retained on the unifilter and was measured with a Topcount Microplate Scintillation Counter, (Packard) using Microscint 0 scintillation liquid (Packard).
FIGS. 3–5 depict certain compounds of the present invention and their IC50 values as determined in this assay. […]

[2] = tested on: AT; details: background; read-out: IC50, inhibits AT; cited from earlier work
[3] = tested on: mice; assay: Hot plate test in mice (nociceptive reaction latency); type: in vivo; details: i.v., Anandamide 20 mg/kg, Compound 4 10 mg/kg, cut-off 30 seconds; for Nociceptive Reaction Latency, Mean: N 10; for Nociceptive Reaction Latency, individual mice: hot plate 56° C.
Experimental: This experiment assessed the analgesic effects of anandamide, compound 4, and a combination of anadamide and compound 4 in the hot plate test in mice.
One hundred (100) male Swiss mice ICO: OF1 (IOPS Caw) (Iffa Credo, France) weighing 17 g to 23 g were used in the study. The mice were housed in a temperature (19.5–24.5° C.) and relative humidity (45–65%) controlled room with a 12-h light/dark cycle, with ad libitum access to filtered tap-water and standard pelleted laboratory chow (U.A.R., France) throughout the study. Upon receipt at animal facilities, they were housed 20 per cage and at least a 5-day acclimatization period was observed. Animals were individually identified on their tails.
Ten groups of 10 animals each were used in this study. The individual groups were treated as set forth below. The doses used are expressed in terms of free active substance. The test and reference substances and the vehicle were administered by intravenous route (i.v) in a random order with a volume of 5 mL/kg. Anandamide and compound 4 were concomitantly administered as a mixture by intravenous route under a volume of 10 mL/kg (Groups 3, 7 and 10).
Twenty, thirty and sixty minutes after dosing, a given mouse was placed on a metallic hot plate maintained at 56±0.2° C. The nociceptive reaction latency, characterized by a licking reflex of the forepaws or by a jumping off the hot plate, was recorded. The cut-off time was set to 30 seconds. See Eddy NB, Touchberry CF, Lieberman JE. “Synthetic analgesics.
The mean results from these experiments are presented graphically in FIG. 6. The results tabulated in FIG. 6 are expressed as mean±sem. ANOVA (2 ways): time/treatment's effect as well as interaction between the two, for vehicle, anandamide and association groups. Dunnett's test: * indicates a significant difference in comparison with the vehicle-treated group for P<0.05. Dunnett's test :† indicates a significant difference in comparison with the same treated group at t−60 min for P<0.05. ANOVA (1 ways): at t−30 min for vehicle, anandamide, compound 4 and association groups. Dunnett's test: ° indicates a significant difference in comparison with the vehicle-treated group for P<0.05. Vehicle: Saline+20% DMSO; n=10 mice per groups.

SMILES	IC50 [1] [nM]	IC50 [2] [nM]	Nociceptive Reaction Latency, Mean ([3]; 20 minutes post-administration) [s]	Nociceptive Reaction Latency, individual mice ([3]; 20 minutes post-administration)	Nociceptive Reaction Latency, Mean ([3]; 30 minutes post-administration) [s]	Nociceptive Reaction Latency, individual mice ([3]; 30 minutes post-administration)	Nociceptive Reaction Latency, Mean ([3]; 60 minutes post-administration) [s]	Nociceptive Reaction Latency, individual mice ([3]; 60 minutes post-administration)
CCCCC/C=C\C/C=C\C/C=C\C/C=C\CCCC(=O)Nc1ccc(O)cc1 [AM-404, N-(4-hydroxyphenyl)arachidonamide]	2000	~2000	–	–	–	–	–	–
CCCCC/C=C\C/C=C\C/C=C\C/C=C\CCCC(=O)NCCO [Anandamide, N-(2-hydroxyethyl)arachidonamide]	–	–	8.9	10.3 s and 21.2 s and 6.3 s and 8.8 s and 4.9 s and 5.3 s and 8.1 s and 7.8 s and 5.1 s and 11.5 s	8.1	8.9 s and 7.5 s and 10.7 s and 7.9 s and 5.2 s and 9.7 s and 10 s and 7.1 s and 6.5 s and 7.8 s	11.7	6.9 s and 11.1 s and 10.1 s and 9.3 s and 11.7 s and 8.9 s and 16.1 s and 13.5 s and 24.4 s and 4.6 s
C=CCOc1ccc(CN(CC=Cc2ccccc2)CCOC)cc1 [Compound 4, N-(4-Allyloxybenzyl)-N-(2-methoxyethyl)-N-(3-phenyl-allyl)amine]	–	–	–	–	10.2	10 s and 12.8 s and 14.5 s and 4.5 s and 10.4 s and 4.2 s and 9.6 s and 13.5 s and 16.3 s and 6.1 s	–	–
